In brackets after ≈: the same amount, converted by molar mass. Activity calls are given as the source filed them. The calls are words filed in the database; no cut-off is given here.
What was measured:
[1] = system: Escherichia coli; experiment: Induction of erm(C) expression in Escherichia coli JM109 harboring Staphylococcus aureus erm(C)-containing pERMZdelta2-4 mutant leader peptide cistrons reporter plasmid at 25 mg/ml after 36 hrs at 37 degC by disc-based beta-galactosidase reporter gene assay; assay type: functional, organism-based
[2] = system: Escherichia coli; experiment: Induction of erm(C) expression in Escherichia coli JM109 harboring Staphylococcus aureus erm(C)-containing pERMZ7 lacking codons 2 to 4 with additional mutations leader peptide cistrons reporter plasmid at 25 mg/ml after 36 hrs at 37 degC by disc-based beta-galactosidase reporter gene assay; assay type: functional, organism-based
[3] = system: Escherichia coli; experiment: Induction of erm(C) expression in Escherichia coli JM109 harboring Staphylococcus aureus erm(C)-containing pERMZalpha reporter plasmid at 10 mg/ml after 36 hrs at 37 degC by disc-based beta-galactosidase reporter gene assay; assay type: functional, organism-based
[4] = system: Escherichia coli; experiment: Induction of erm(C) expression in Escherichia coli ZK796 harboring Staphylococcus aureus erm(C)-containing pERMCT plasmid assessed as increase in A2058 dimethylation in 23S rRNA at 25% MIC after 4 hrs by primer extension assay; assay type: functional, organism-based
[5] = system: Escherichia coli; experiment: Antimicrobial activity against Escherichia coli ZK796 harboring empty plasmid; assay type: functional
[6] = system: Escherichia coli; experiment: Induction of erm(C) expression in Escherichia coli ZK796 harboring Staphylococcus aureus erm(C)-containing pERMCT plasmid assessed as increase in A2058 dimethylation in 23S rRNA at 0.4 ug/ml at 2 hrs by primer extension assay; assay type: functional, organism-based
[7] = system: Escherichia coli; experiment: Antimicrobial activity against Escherichia coli ZK796 harboring Staphylococcus aureus erm(C)-containing pERMCT plasmid; assay type: functional
[8] = system: Escherichia coli; experiment: Induction of erm(C) expression in Escherichia coli ZK796 harboring Staphylococcus aureus erm(C)-containing pERMCT plasmid assessed as increase in A2058 dimethylation in 23S rRNA at 0.4 ug/ml after 4 hrs by primer extension assay; assay type: functional, organism-based
[9] = system: Escherichia coli; experiment: Induction of erm(C) expression in Escherichia coli JM109 harboring Staphylococcus aureus erm(C)-containing pERMZalpha reporter plasmid after 36 hrs at 37 degC by disc-based beta-galactosidase reporter gene assay; assay type: functional, organism-based
[10] = system: Escherichia coli; experiment: Induction of erm(C) expression in Escherichia coli JM109 harboring Staphylococcus aureus erm(C)-containing pERMZalpha reporter plasmid at 1.5 mg/ml after 36 hrs at 37 degC by disc-based beta-galactosidase reporter gene assay; assay type: functional, organism-based
[11] = system: Escherichia coli; experiment: Induction of erm(C) expression in Escherichia coli JM109 harboring Staphylococcus aureus erm(C)-containing pERMZalpha reporter plasmid after 36 hrs at 25 mg/ml 37 degC by disc-based beta-galactosidase reporter gene assay; assay type: functional, organism-based
[12] = system: Escherichia coli; experiment: Induction of erm(C) expression in Escherichia coli JM109 harboring Staphylococcus aureus erm(C)-containing pERMZalpha reporter plasmid at 8 mg/ml after 36 hrs at 37 degC by disc-based beta-galactosidase reporter gene assay; assay type: functional, organism-based
[13] = system: Escherichia coli; experiment: Induction of erm(C) expression in Escherichia coli ZK796 harboring Staphylococcus aureus erm(C)-containing pERMCT plasmid assessed as increase in A2058 dimethylation in 23S rRNA at 0.8 ug/ml after 30 mins by primer extension assay; assay type: functional, organism-based
[14] = system: Escherichia coli; experiment: Induction of erm(C) expression in Escherichia coli JM109 harboring Staphylococcus aureus erm(C)-containing pERMZalpha reporter plasmid at 4.5 mg/ml after 36 hrs at 37 degC by disc-based beta-galactosidase reporter gene assay; assay type: functional, organism-based

Row | Compound | Activity [1] | Activity [2] | Activity [3] | Activity [4] | also measured
1 | CC[C@H]1OC(=O)[C@H](C)[C@@H](O[C@H]2C[C@@](C)(OC)[C@@H](O)[C@H](C)O2)[C@H](C)[C@@H](O[C@@H]2O[C@H](C)C[C@H](N(C)C)[C@H]2O)[C@](C)(OC)C[C@@H](C)C(=O)[C@H](C)[C@@H]2N(NCCCc3ccnc4ccccc34)C(=O)O[C@@]21C | inactive | inactive | Active | – | –
2 | CC[C@H]1OC(=O)[C@H](C)C(=O)[C@H](C)[C@@H](O[C@@H]2O[C@H](C)C[C@H](N(C)C)[C@H]2O)[C@](C)(OC)C[C@@H](C)C(=O)[C@H](C)[C@H]2N(CCCCn3cnc(-c4cccnc4)c3)C(=O)O[C@]12C [TELITHROMYCIN] | inactive | inactive | – | Active | MIC [5]: 1.5 µg/mL (≈ 1.85 µM); Activity [6]: inactive; MIC [7]: 1.5 µg/mL (≈ 1.85 µM); Activity [8]: Active; Activity [9]: Active; Activity [10]: Active
3 | CC[C@H]1OC(=O)C[C@@H](O)[C@H](C)[C@@H](O[C@@H]2O[C@H](C)[C@@H](O[C@H]3C[C@@](C)(O)[C@@H](O)[C@H](C)O3)[C@H](N(C)C)[C@H]2O)[C@@H](CC=O)C[C@@H](C)C(=O)/C=C/C(C)=C/[C@@H]1CO[C@@H]1O[C@H](C)[C@@H](O)[C@@H](OC)[C@H]1OC | – | – | inactive | – | –
4 | CC[C@H]1OC(=O)[C@H](C)[C@@H](O[C@H]2C[C@@](C)(OC)[C@@H](O)[C@H](C)O2)[C@H](C)[C@@H](O[C@@H]2O[C@H](C)C[C@H](N(C)C)[C@H]2O)[C@](C)(O)C[C@@H](C)CN(C)[C@H](C)[C@@H](O)[C@]1(C)O | inactive | inactive | – | Active | Activity [11]: inactive
5 | CC[C@H]1OC(=O)[C@H](C)C(=O)[C@H](C)[C@@H](O[C@@H]2O[C@H](C)C[C@H](N(C)C)[C@H]2O)[C@](C)(OC)C[C@@H](C)C(=O)[C@H](C)[C@@H]2N(NCCCc3ccnc4ccccc34)C(=O)O[C@@]21C | inactive | inactive | – | – | Activity [9]: Active; Activity [10]: Active
6 | CC[C@H]1OC(=O)[C@@](C)(F)C(=O)[C@H](C)[C@@H](O[C@@H]2O[C@H](C)C[C@H](N(C)C)[C@H]2O)[C@](C)(OC)C[C@@H](C)C(=O)[C@H](C)[C@@H]2N(CCCCn3cnc(-c4cccnc4)c3)C(=O)O[C@@]21C | inactive | inactive | – | – | Activity [9]: Active
7 | O=C(N[C@H](CO)[C@H](O)c1ccc([N+](=O)[O-])cc1)C(Cl)Cl [CHLORAMPHENICOL] | – | – | – | – | MIC [5]: 2 µg/mL (≈ 6.19 µM); MIC [7]: 2 µg/mL (≈ 6.19 µM)
8 | CC[C@H]1OC(=O)[C@H](C)C(=O)[C@H](C)[C@@H](O[C@@H]2O[C@H](C)C[C@H](N(C)C)[C@H]2O)[C@](C)(OC)C[C@@H](C)C(=O)[C@H](C)[C@@H]2N(NCCc3ccccc3)C(=O)O[C@@]21C | inactive | inactive | – | – | –
9 | CC[C@H]1OC(=O)[C@H](C)[C@@H](O[C@H]2C[C@@](C)(OC)[C@@H](O)[C@H](C)O2)[C@H](C)[C@@H](O[C@@H]2O[C@H](C)C[C@H](N(C)C)[C@H]2O)[C@](C)(OC)C[C@@H](C)C(=O)[C@H](C)[C@@H]2N(CCCCn3cnc(-c4cccnc4)c3)C(=O)O[C@@]21C | – | – | Active | Active | –
10 | CC[C@H]1OC(=O)[C@H](C)C(=O)[C@H](C)[C@@H](O[C@@H]2O[C@H](C)C[C@H](N(C)C)[C@H]2O)[C@](C)(OCC=Cc2cnc3ccccc3c2)C[C@@H](C)C(=O)[C@H](C)[C@H]2NC(=O)O[C@@]21C [CETHROMYCIN] | inactive | inactive | – | Active | MIC [5]: 1.5 µg/mL (≈ 1.96 µM); MIC [7]: 1.5 µg/mL (≈ 1.96 µM); Activity [9]: Active
11 | CC[C@H]1OC(=O)[C@H](C)[C@@H](O[C@H]2C[C@@](C)(OC)[C@@H](O)[C@H](C)O2)[C@H](C)[C@@H](O[C@@H]2O[C@H](C)C[C@H](N(C)C)[C@H]2O)[C@](C)(O)C[C@@H](C)/C(=N\OCOCCOC)[C@H](C)[C@@H](O)[C@]1(C)O | inactive | inactive | – | – | –
12 | CC[C@H]1OC(=O)[C@H](C)[C@@H](O[C@H]2C[C@@](C)(OC)[C@@H](O)[C@H](C)O2)[C@H](C)[C@@H](O[C@@H]2O[C@H](C)C[C@H](N(C)C)[C@H]2O)[C@](C)(OC)C[C@@H](C)C(=O)[C@H](C)[C@@H](O)[C@]1(C)O | inactive | inactive | – | – | Activity [12]: Active
13 | CC[C@H]1OC(=O)[C@H](C)[C@@H](O[C@H]2C[C@@](C)(OC)[C@@H](O)[C@H](C)O2)[C@H](C)[C@@H](O[C@@H]2O[C@H](C)C[C@H](N(C)C)[C@H]2O)[C@](C)(O)C[C@@H](C)C(=O)[C@H](C)[C@@H](O)[C@]1(C)O [ERYTHROMYCIN] | inactive | inactive | – | Active | Activity [13]: Active; MIC [5]: 3 µg/mL (≈ 4.09 µM); MIC [7]: 25 µg/mL (≈ 34.1 µM); Activity [14]: Active
14 | SPIRAMYCIN | – | – | inactive | – | –
15 | CO[C@@H]1[C@@H](O[C@@H]2O[C@H](C)[C@@H](O[C@H]3C[C@@](C)(O)[C@@H](OC(=O)CC(C)C)[C@H](C)O3)[C@H](N(C)C)[C@H]2O)[C@@H](CC=O)C[C@@H](C)[C@@H](O)/C=C/C=C/C[C@@H](C)OC(=O)C[C@H]1OC(C)=O | – | – | inactive | – | –
